In patent US6656509B1, “Combination of selenium-containing compounds with cytostatics” (Biosyn Arzneimittel GmbH, priority 1998, dated 2003):
Where two headings read alike, the source gives them in different places.

Experiments:
LXFL 529 = assay: clonogenic assay (colony forming assay); format: cell-based, human; conditions: LXFL 529/18, X182AM
Description: (§1) Solid human tumor xenografts growing subcutaneously in serial passages in thymus-aplastic nude mice (NMRI nu/nu strain, obtained from our own breeding facility) were removed under sterile conditions, the cells were mechanically disaggregated and subsequently incubated with an enzyme cocktail consisting of collagenase (1.2-1.8 U/ml, Worthington), DNAse (375 U/ml, Boehringer Mannheim) und hyaluronidase (29 U/ml, Boehringer Mannheim) in RPMI 1640 at 37° C. for 30 minutes. The cell mixture was passed through sieves of 200 μm and 50 μm mesh size and washed thereafter twice with PBS. The percentage of viable cells was determined in a Neubauer counting chamber using trypan blue exclusion.
(§2) The clonogenic assay was performed according to a modified two-layer soft agar assay described by Hamburger and Salmon (Hamburger and Salmon, Science, 197: 461463, 1977). The bottom layer consisted of 0.2 ml Iscoves' Modified Dulbecco's Medium with 20% fetal calf serum and 0.75% agar. 8×10^3 to 1,6×10^4 cells were added to 0.2 ml of the same culture medium together with 0.4% agar and placed in already coated 24-multiwell dishes. Test substances were applied by continuous exposure (drug overlay) in 0.2 ml medium. Every dish included six control wells containing the vehicle- and drug-treated groups in triplicate at six concentrations.
(§3) Cultures were incubated at 37° and 7% CO2 in a humidified atmosphere for 5 to 15 days (depending on the doubling time of the tumor stem cells) and monitored for colony growth using an inverted microscope. Within this period, in vitro tumor growth led to the formation of colonies with a diameter of ≧50 μm. At the time of maximum colony formation counts were performed with an automatic image analysis system (OMNICOM Fas IV, Biosys GmbH). 24 hours prior to this assay, vital colonies were stained with a sterile aqueous solution of 2-(4-iodophenyl)-3-(4-nitrophenyl)-5-phenyltetrazolium chloride (1 mg/ml, 100 μI/well). Drug effects were expressed in terms of the percentage of surviving cells, obtained by comparison of the mean number of colonies in the treated plates with the mean colony count of the untreated controls (test-versus-control-group value, T/C=colony countTreated Group*100/colony countControl Group).
(§4) Coefficient of variation in the control group ≦50%. IC50 and IC70 values were determined by plotting compound concentration versus cell survival rate. Mean IC50 and IC70 values were calculated according to the formula: [formula]
(§5) with x=specific tumor xenograft and n=total number of tumor xenografts studied. If an IC50 or IC70 value could not be determined within the examined dose range, the lowest or highest concentration studied was used for the calculation.

OVXF 899 = assay: clonogenic assay (colony forming assay); format: cell-based, human; conditions: OVXF 899/33; X185AM
Description: as §1, §2, §3, §4, §5

PRXF DU145X = assay: clonogenic assay (colony forming assay); format: cell-based, human; conditions: PRXF DU145X/15, X229AM
Description: as §1, §2, §3, §4, §5

human tumor xenografts = assay: clonogenic assay, all 12 xenografts (means, active/total); format: cell-based
Description: The cell mixture was passed through sieves of 200 μm and 50 μm mesh size and washed thereafter twice with PBS. The percentage of viable cells was determined in a Neubauer counting chamber using trypan blue exclusion.
8×10^3 to 1,6×10^4 cells were added to 0.2 ml of the same culture medium together with 0.4% agar and placed in already coated 24-multiwell dishes. Test substances were applied by continuous exposure (drug overlay) in 0.2 ml medium. Every dish included six control wells containing the vehicle- and drug-treated groups in triplicate at six concentrations.
as §3, with “24 hours prior to this assay, vital colonies were stained with a sterile aqueous solution of 2-(4-iodophenyl)-3-(4-nitrophenyl)-5-phenyltetrazolium chloride (1 mg/ml, 100 μI/well).” left out
as §4, §5

[1] = oral; cited from earlier work
[2] = cited from earlier work
[3] = cited from earlier work; remark: listed apart in the source
[4] = corresponding selenium concentration
[5] = mean over the xenografts studied

## O=[Se]([O-])[O-].[Na+].[Na+] [sodium selenite]
LXFL 529
  Test/control (%) at drug concentration [μM] 1.: 61%
  Test/control (%) at drug concentration [μM] 10.: 9%
  Test/control (%) at drug concentration [μM] 100.: 0%
  Test/control (%) at drug concentration [μM] .001: 90%
  Test/control (%) at drug concentration [μM] .01: 78%
  Test/control (%) at drug concentration [μM] .1: 72%
  Test/control (%) class at drug concentration [μM] 1.: − (− (T/C ≧ 50%))
  Test/control (%) class at drug concentration [μM] 10.: +++ (+++ (T/C ≦ 10%))
  Test/control (%) class at drug concentration [μM] 100.: +++ (+++ (T/C ≦ 10%))
  Test/control (%) class at drug concentration [μM] .001: − (− (T/C ≧ 50%))
  Test/control (%) class at drug concentration [μM] .01: − (− (T/C ≧ 50%))
  Test/control (%) class at drug concentration [μM] .1: − (− (T/C ≧ 50%))
LXFL 529; listed as selenium
  Test/control (%) at drug concentration [μM] 10.: < 30%
OVXF 899
  Test/control (%) at drug concentration [μM] 1.: 70%
  Test/control (%) at drug concentration [μM] 10.: 73%
  Test/control (%) at drug concentration [μM] 100.: 1%
  Test/control (%) at drug concentration [μM] .001: 80%
  Test/control (%) at drug concentration [μM] .01: 79%
  Test/control (%) at drug concentration [μM] .1: 66%
  Test/control (%) class at drug concentration [μM] 1.: − (− (T/C ≧ 50%))
  Test/control (%) class at drug concentration [μM] 10.: − (− (T/C ≧ 50%))
  Test/control (%) class at drug concentration [μM] 100.: +++ (+++ (T/C ≦ 10%))
  Test/control (%) class at drug concentration [μM] .001: − (− (T/C ≧ 50%))
  Test/control (%) class at drug concentration [μM] .01: − (− (T/C ≧ 50%))
  Test/control (%) class at drug concentration [μM] .1: − (− (T/C ≧ 50%))
PRXF DU145X
  Test/control (%) at drug concentration [μM] 1.: 91%
  Test/control (%) at drug concentration [μM] 10.: 5%
  Test/control (%) at drug concentration [μM] 100.: 0%
  Test/control (%) at drug concentration [μM] .001: 97%
  Test/control (%) at drug concentration [μM] .01: 96%
  Test/control (%) at drug concentration [μM] .1: 92%
  Test/control (%) class at drug concentration [μM] 1.: − (− (T/C ≧ 50%))
  Test/control (%) class at drug concentration [μM] 10.: +++ (+++ (T/C ≦ 10%))
  Test/control (%) class at drug concentration [μM] 100.: +++ (+++ (T/C ≦ 10%))
  Test/control (%) class at drug concentration [μM] .001: − (− (T/C ≧ 50%))
  Test/control (%) class at drug concentration [μM] .01: − (− (T/C ≧ 50%))
  Test/control (%) class at drug concentration [μM] .1: − (− (T/C ≧ 50%))
PRXF DU145X; listed as selenium
  Test/control (%) at drug concentration [μM] 10.: < 30%
Human tumor xenografts; 100 μM
  T/C values in all xenografts: below 20%
Human tumor xenografts; 1. μM
  active(++, +++)/total: 0/12
  active(++, +++)/total xenografts only, percent: 0%
Human tumor xenografts; 10. μM
  active(++, +++)/total: 2/12
  active(++, +++)/total xenografts only, percent: 17%
Human tumor xenografts; 100. μM
  active(++, +++)/total: 12/12
  active(++, +++)/total xenografts only, percent: 100%
Human tumor xenografts; .001 μM
  active(++, +++)/total: 0/12
  active(++, +++)/total xenografts only, percent: 0%
Human tumor xenografts; .01 μM
  active(++, +++)/total: 0/12
  active(++, +++)/total xenografts only, percent: 0%
Human tumor xenografts; .1 μM
  active(++, +++)/total: 0/12
  active(++, +++)/total xenografts only, percent: 0%
Human tumor xenografts; amounts up to 1 μM
  cytotoxic effect: no distinct cytotoxic effect
Human tumor xenografts; [4]
  mean IC50 as selenium concentration: 1,2 μg/ml
  mean IC70 as selenium concentration: 2.1 µg/mL
Human tumor xenografts; [5]
  IC50: 15.5 µM
  mean IC70: 27 µM
[1]
  intestinal absorption, sometimes: over 90%
[2]; humans, sensitive persons
  dosage considered harmless in sensitive persons: up to 500 μg per day
[2]; humans, inferred from chronic toxicity observations
  safe maximum daily intake of selenium: 820 µg
[2]; study carried out in China
  daily supply after which clinical signs of selenosis were observed: 3200 to 6700 µg
[3]; 8 hours after 10 mg selenium as sodium selenite
  plasma selenium: 770 μg/I
[3]; 16 hours after 10 mg selenium as sodium selenite
  plasma selenium: 430 μg/I
[3]; after 10 mg selenium as sodium selenite
  time until selenium level in plasma again reached its initial value: 24 h
[3]; infusion, tumor patients
  dose from which gastrointestinal toxicity was observed (reversible): about 20 mg selenium
[3]; within 30 minutes after 10 mg selenium as sodium selenite, infused, rose from 200 μg/l
  selenium level in plasma: 1200 µg/L
